Molecules are shown by their SMILES. “And” between values parts separate entries of the source, which are not always exact repeats. Equal values may be shown once.

The experiment addresses T1, IKZF2 (Homo sapiens, UniProt Q96SW2+Q9UKS7).
T1 construct: endogenous in cells; host or cells: MOLM-13
Nature of the experiment: IKZF2 immunoblotting in MOLM-13 cells. It counts as cell-based. How it is done:
We further tested the specificity of SJ3149 considering that previously reported CK1α degraders also lead to degradation of IKZF2[26]. Even though there was a negligible change in IKZF2 protein level in our proteomics studies, we sought to confirm this observation by immunoblotting. In a similar experiment to those shown in Fig. 2b, MOLM-13 cells were treated with SJ3149 for 4 h at increasing concentrations ranging from 1 nM to 10 µM and analyzed by immunoblotting to quantify IKZF2 and CK1α proteins. While at 4 nM concentration SJ3149 induced 50% degradation of CK1α protein, IKZF2 levels were reduced by only ~40% at the highest dose (10 μM), confirming the selectivity of SJ3149 for CK1α over IKZF2 (Supplementary Fig. 6d). These collective data support the claim that CK1α degradation is responsible for the observed cellular phenotypes induced by SJ3149 treatment.
Frozen pellets of ~1 million cells were lysed in 150 µl of SDS lysis buffer (60 mM Tris/HCl pH 7, 10% glycerol, 2% SDS, 5% beta-mercaptoethanol, 0.02% bromophenol blue, 0.5% protease and phosphatase inhibitor cocktail (Sigma Aldrich)). When cells were resuspended, samples were heated for 3 min at 99 °C then put on ice. Samples were then fragmented by sonication for 10 0.5-s pulses (550 Sonic Dismembrator, Fisher Scientific) and heated again at 99 °C for 2 min. 15 μl of each sample was added to the wells of a 4–20% polyacrylamide gel (Bio-Rad). A mixture of 2 μl of Precision Plus Protein Unstained Standards and 2 μl of Precision Plus Protein All Blue Standards (Bio-Rad) was used for the size marker. After electrophoresis, gels were transferred to nitrocellulose membrane using the Bio-Rad Trans-Blot Turbo system on the mixed molecular weight setting. Membranes were blocked for 1 h in Li-Cor Intercept Blocking Buffer then probed overnight at 4 °C with primary antibody, at 1:1000 dilution or 1:2000 dilution for actin, in Li-Cor Intercept Antibody Diluent. The following morning, membranes were washed three times for 5 min with TBS + 0.05% Tween-20, probed with fluorescent secondary antibodies (goat anti-rabbit IRDye 800CW and goat anti-mouse IRDye 680RD, Li-Cor) for 1 h at room temperature in the dark at 1:10,000 dilution, and washed again 3 times. Blots were imaged with the Li-Cor Odyssey CLx and analyzed using Image Studio Version 5.2.
Primary antibodies used: rabbit anti-CK1α, ab206652, clone EPR19824, Abcam rabbit anti-p21, 2947S, clone 12D1, Cell Signaling Technology rabbit anti-Helios (IKZF2), 42427, clone D8W4X, Cell Signaling Technology mouse anti-beta actin, 3700S, clone 8H10D10, Cell Signaling Technology
(In general: In western blotting, separated proteins are transferred to a membrane and probed.)

The mark [1] stands for this setting: western blot quantification, relative to DMSO.

T1 sequence (Q9UKS7 whole entry): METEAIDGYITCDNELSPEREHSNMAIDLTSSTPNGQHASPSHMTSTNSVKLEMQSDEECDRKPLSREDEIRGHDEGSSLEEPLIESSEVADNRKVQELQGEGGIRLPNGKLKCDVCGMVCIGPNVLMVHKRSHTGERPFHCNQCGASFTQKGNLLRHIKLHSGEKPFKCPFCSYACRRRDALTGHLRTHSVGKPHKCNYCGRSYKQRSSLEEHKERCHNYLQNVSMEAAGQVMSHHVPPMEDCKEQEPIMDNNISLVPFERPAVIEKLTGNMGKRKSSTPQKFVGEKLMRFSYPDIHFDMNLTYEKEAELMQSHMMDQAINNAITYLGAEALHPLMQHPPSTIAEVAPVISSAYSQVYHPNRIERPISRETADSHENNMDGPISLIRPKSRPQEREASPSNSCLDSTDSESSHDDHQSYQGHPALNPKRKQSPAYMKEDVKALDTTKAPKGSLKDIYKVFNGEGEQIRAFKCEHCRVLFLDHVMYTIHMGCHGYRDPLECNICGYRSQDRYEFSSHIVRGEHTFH
T1 sequence (Q96SW2 whole entry): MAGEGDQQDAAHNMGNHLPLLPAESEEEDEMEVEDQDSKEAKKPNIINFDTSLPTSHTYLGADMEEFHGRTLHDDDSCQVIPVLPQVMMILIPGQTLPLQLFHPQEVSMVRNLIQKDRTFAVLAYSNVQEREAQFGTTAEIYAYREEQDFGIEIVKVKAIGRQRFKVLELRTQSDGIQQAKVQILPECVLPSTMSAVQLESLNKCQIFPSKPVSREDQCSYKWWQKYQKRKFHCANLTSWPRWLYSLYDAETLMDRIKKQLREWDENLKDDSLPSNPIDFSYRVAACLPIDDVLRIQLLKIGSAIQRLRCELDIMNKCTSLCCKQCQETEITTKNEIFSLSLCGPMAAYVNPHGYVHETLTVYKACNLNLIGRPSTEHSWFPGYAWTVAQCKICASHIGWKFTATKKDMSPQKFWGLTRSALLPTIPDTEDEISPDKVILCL
T1 sequence (Q16531 whole entry partner): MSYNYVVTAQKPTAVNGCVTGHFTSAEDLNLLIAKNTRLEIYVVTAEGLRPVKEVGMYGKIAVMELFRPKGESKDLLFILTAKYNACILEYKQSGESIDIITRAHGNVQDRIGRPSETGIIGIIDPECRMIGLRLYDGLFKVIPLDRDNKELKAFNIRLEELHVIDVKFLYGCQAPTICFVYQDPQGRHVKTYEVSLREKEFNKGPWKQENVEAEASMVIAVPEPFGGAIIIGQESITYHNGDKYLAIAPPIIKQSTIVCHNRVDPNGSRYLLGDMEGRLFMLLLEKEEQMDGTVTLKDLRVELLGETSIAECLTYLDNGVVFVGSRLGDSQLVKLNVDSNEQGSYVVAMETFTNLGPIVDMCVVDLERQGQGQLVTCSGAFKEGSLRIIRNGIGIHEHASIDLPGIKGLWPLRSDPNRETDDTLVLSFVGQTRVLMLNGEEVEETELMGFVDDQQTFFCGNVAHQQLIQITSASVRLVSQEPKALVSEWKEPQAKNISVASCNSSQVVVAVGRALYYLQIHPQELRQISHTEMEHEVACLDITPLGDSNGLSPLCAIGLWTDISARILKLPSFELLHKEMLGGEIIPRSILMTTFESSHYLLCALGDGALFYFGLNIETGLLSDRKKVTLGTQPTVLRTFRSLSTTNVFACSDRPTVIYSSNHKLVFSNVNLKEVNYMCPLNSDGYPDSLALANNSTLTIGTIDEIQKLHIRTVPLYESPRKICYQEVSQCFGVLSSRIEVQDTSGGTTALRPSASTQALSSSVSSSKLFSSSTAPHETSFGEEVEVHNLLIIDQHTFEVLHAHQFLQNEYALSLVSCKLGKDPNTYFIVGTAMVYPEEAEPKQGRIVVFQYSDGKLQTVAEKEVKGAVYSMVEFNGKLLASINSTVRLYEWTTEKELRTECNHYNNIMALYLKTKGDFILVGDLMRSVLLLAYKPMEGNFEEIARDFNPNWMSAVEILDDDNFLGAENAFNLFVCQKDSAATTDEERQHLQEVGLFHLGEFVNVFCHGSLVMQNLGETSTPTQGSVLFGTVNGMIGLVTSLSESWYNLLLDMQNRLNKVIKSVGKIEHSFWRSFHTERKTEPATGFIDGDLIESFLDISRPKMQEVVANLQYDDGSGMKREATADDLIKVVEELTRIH

Turning to `O=C1CCC(N2Cc3cc(Nc4noc5ccccc45)ccc3C2=O)C(=O)N1` (centres unmarked) [SJ3149], the IKZF2 level reduction (MOLM-13, 10 μM, 4 h) was ~ 40%. Besides, the “IKZF2 western blot quantification” value reads like this: (SJ3149 0.001 uM, relative to DMSO) 1.093 and 0.9655 and 0.8978; (SJ3149 0.01 uM, relative to DMSO) 0.8205 and 1.143 and 0.8035; (SJ3149 0.1 uM, relative to DMSO) 0.5925 and 0.7587 and 0.8297; (SJ3149 1 uM, relative to DMSO) 0.5412 and 0.7758 and 0.64; (SJ3149 10 uM, relative to DMSO) 0.4999 and 0.6664 and 0.6326. Also, the “Bottom (sigmoidal 4PL fit) of IKZF2 protein level” value under setting [1] is recorded as 0.61. Under setting [1], the “Top (sigmoidal 4PL fit) of IKZF2 protein level” value is 1.002.

The values are drawn from paper PMC10791743, “Selective CK1α degraders exert antiproliferative activity against a broad range of human cancer cell lines” (Nature Communications, 2024).
